Like-named read-outs stand apart in the source and are kept apart here.
How the values were obtained:
−1 PRF of SARS-CoV-2 = test: microbe, parasite or virus in culture; type: cell-based; details: for validated effect on −1 PRF in dual luciferase-based PRF reporter assay: repurchased screen candidates
SARS-CoV-2 FSE (−1 PRF) = test: cells; type: cell-based
HEK293T cells [1] = test: Cell viability in the high-throughput screen (cell nuclei numbers); details: 10 μM compound, cell nuclei numbers
Method: HEK293T cells were plated in 384 well plates at the density of 5,000 cells/well. Cells were treated by 10 μM candidate compounds 30 min before transfection of 15 ng mCherry-FSE-GFP(−1) plasmid DNA in each well. 24 hours after transfection, cell nuclei were stained with Hoechst dye. Cell nuclei, mCherry, and GFP signals were imaged using an automated fluorescent microscope with a 10x objective, and the acquired images were quantified using the CellProfiler image analysis package. Cell nuclei numbers were quantified as the metric for cell viability. Mean GFP and RFP intensity values were measured in all transfected cells, and GFP/mCherry mean intensity ratios were quantified as the metric for PRF efficiency. The mCherry-GFP fusion plasmid and the mCherry-FSE-GFP(0) plasmid were used as positive and negative controls for elevated and reduced GFP/mCherry ratios, respectively.

−1 PRF in SARS-CoV-2 = details: prior art statement; cited from earlier work
HIV-1 (NL4-3-dNef-GFP) = test: HIV-1 antiviral assay in Jurkat T cells; type: cell-based; details: Jurkat T cells (FIG. 7)
SARS-CoV-2 = test: Viral plaque assay, SARS-CoV-2 in Vero E6 cells; type: cell-based; details: Severe acute respiratory syndrome coronavirus 2, Vero C1008
HCoV-OC43 = test: Viral plaque assay, HCoV-OC43 in MA104 cells; type: cell-based; details: MA104 cells (FIGS. 6G-6H)
Method: Plaque formation assays for SARS-CoV-2, HCoV-229E, and HCoV-OC43 were performed in Vero E6, HuH-7.5, and MA104 cells (ATCC), respectively. Briefly, cells were seeded at 2-4×10^5 cells/well in 12-well plates. The following day, cells were incubated with viral stock (multiplicity of infection [MOI]=0.05) for 1 h and washed twice with PBS. Merafloxacin diluted in DMSO was added to the media, mixed briefly, and incubated at 37° C. After 2 d, media were collected, centrifuged, and supernatants were stored at −80° C. To quantify viral titers, the collected media were first serially diluted 10-fold with fresh media. Two hundred microliters of each dilution were added to near-confluent cells in six-well plates and incubated at 37° C. for 1 h with gentle rocking. Subsequently, overlay media (DMEM, 2% FBS, 0.6% Avicel RC-581) was added to each well. After 3 d, cells were fixed with 10% formaldehyde for 30 min, stained with crystal violet for 30 min, and rinsed with deionized water to visualize plaques.

−1 PRF of HCoV-HKU1 = test: cells; type: cell-based; details: read-out: IC50 of −1 PRF inhibition, HCoV-HKU1
Vero E6 cells = Vero E6 cells (FIG. 6B)
−1 PRF of EAV = type: cell-based, equine arteritis virus (EAV)
−1 PRF of hCoV-229E = type: cell-based; details: 20 μM merafloxacin (FIG. 2E)
−1 PRF of WNV = type: cell-based, west nile virus (WNV)
−1 PRF of HCoV-OC43 = test: microbe, parasite or virus in culture; type: cell-based; details: Betacoronavirus 1, OC43, read-out: IC50 of −1 PRF inhibition, HCoV-OC43
[2] = tested on: −1 PRF of human PEG10 mRNA; type: cell-based
SARS-CoV-2 nsp12 / nsp8 = type: cell-based
HEK293T cells [3] = type: cell-based
[4] = tested on: two-stem pseudoknot FSE of IBV; type: cell-based, avian coronavirus infectious bronchitis virus (IBV); details: 20 μM merafloxacin (FIG. 2E)
HEK293T cells [5] = details: HEK293T (FIG. 2N)
−1 PRF of hCoV-NL63 = type: cell-based; details: 20 μM merafloxacin (FIG. 2E)
−1 PRF of SARS-CoV = test: microbe, parasite or virus in culture; type: cell-based; details: Severe acute respiratory syndrome coronavirus, read-out: IC50 of −1 PRF inhibition, SARS-CoV
−1 PRF of HIV-1 = type: cell-based, human immunodeficiency virus 1 (HIV-1)
[6] = Severe acute respiratory syndrome coronavirus 2, HEK-293T, 24 h; read-out: PERCENT EFFECT 2 (Decreased GFP/Red ratio)
[7] = Severe acute respiratory syndrome coronavirus 2, HEK-293T, 24 h; read-out: PERCENT EFFECT (Increased GFP/Red Ratio)

N[C@@H]1[C@H]2CN(c3nc4c(cc3F)c(=O)c(C(=O)O)cn4-c3ccc(F)cc3F)C[C@@H]12 [trovafloxacin]
activity on SARS-CoV-2 PRF efficiency, compared with merafloxacin (−1 PRF of SARS-CoV-2; final concentration of 20 μM (FIGS. 3A and 3B)): less active

IVERMECTIN
validated effect on −1 PRF in dual luciferase-based PRF reporter assay (−1 PRF of SARS-CoV-2): enhancer | PERCENT EFFECT 2 (Decreased GFP/Red ratio) (SARS-CoV-2 FSE (−1 PRF)): −36.2% | PERCENT EFFECT (Increased GFP/Red Ratio) (SARS-CoV-2 FSE (−1 PRF)): 15.8% | PERCENT VIABILITY (HEK293T cells [1]): 223.0%

CCOC(=O)c1ccccc1NC(=O)N1CCCN(Cc2csc(C)n2)CC1 [MTDB]
inhibition of −1 PRF in SARS-CoV-2 reporter assays (−1 PRF in SARS-CoV-2): inhibit −1 PRF

Cc1cc(C)c(Nc2ccnc(Nc3ccc(C#N)cc3)n2)c(C)c1 [dapivirine, 4-[[4-[(2,4,6-trimethylphenyl)amino]pyrimidin-2-yl]amino]benzonitrile]
inhibition at 10 µM (SARS-CoV-2 FSE (−1 PRF); [6]): -51.1% | activation at 10 µM (SARS-CoV-2 FSE (−1 PRF); [7]): 24% | PERCENT VIABILITY (HEK293T cells [1]): 36.7%

C[C@H]1O[C@@H](O[C@H]2[C@@H](O)C[C@H](O[C@H]3[C@@H](O)C[C@H](O[C@H]4CC[C@@]5(C)[C@H](CC[C@@H]6[C@@H]5CC[C@]5(C)[C@@H](C7=CC(=O)OC7)CC[C@]65O)C4)O[C@@H]3C)O[C@@H]2C)C[C@H](O)[C@@H]1O [digitoxin]
inhibition at 10 µM (SARS-CoV-2 FSE (−1 PRF); [6]): -34.2% | activation at 10 µM (SARS-CoV-2 FSE (−1 PRF); [7]): 16.8% | PERCENT VIABILITY (HEK293T cells [1]): 6.9%

Cc1cccc(C)c1N=C1NCCCS1 [XYLAZINE]
inhibition at 10 µM (SARS-CoV-2 FSE (−1 PRF); [6]): -52.5% | activation at 10 µM (SARS-CoV-2 FSE (−1 PRF); [7]): 28.9% | PERCENT VIABILITY (HEK293T cells [1]): 196.8%

Nc1c2ccccc2nc2ccccc12 [AMINACRINE]
inhibition at 10 µM (SARS-CoV-2 FSE (−1 PRF); Severe acute respiratory syndrome coronavirus 2, HEK-293T, 24 h, read-out: PERCENT EFFECT 2 (Decreased GFP/Red ratio)): -39.3% | activation at 10 µM (SARS-CoV-2 FSE (−1 PRF); Severe acute respiratory syndrome coronavirus 2, HEK-293T, 24 h, read-out: PERCENT EFFECT (Increased GFP/Red Ratio)): 20.3% | PERCENT VIABILITY (HEK293T cells [1]): 24.0%

NCCNc1ccc(NCCN)c2c1C(=O)c1ccncc1C2=O [Pixantrone dimaleate, 6,9-bis[(2-aminoethyl)amino]-5H,10H-benzo[g]isoquinoline-5,10-dione]
inhibition at 10 µM (SARS-CoV-2 FSE (−1 PRF); [6]): -29.9% | activation at 10 µM (SARS-CoV-2 FSE (−1 PRF); [7]): 15.8% | PERCENT VIABILITY (HEK293T cells [1]): 120.8%

CC[n+]1c(-c2ccccc2)c2cc(N)ccc2c2ccc(N)cc21 [HOMIDIUM BROMIDE]
inhibition at 10 µM (SARS-CoV-2 FSE (−1 PRF); [6]): 107% | activation at 10 µM (SARS-CoV-2 FSE (−1 PRF); [7]): -58% | PERCENT VIABILITY (HEK293T cells [1]): 310.9%

CCC1=C[C@@H]2CN(C1)Cc1c([nH]c3ccccc13)[C@@](C(=O)OC)(c1cc3c(cc1OC)N(C)[C@H]1[C@@](O)(C(=O)OC)[C@H](OC(C)=O)[C@]4(CC)C=CCN5CC[C@]31[C@@H]54)C2 [Vinorelbine]
inhibition at 10 µM (SARS-CoV-2 FSE (−1 PRF); [6]): -29.2% | activation at 10 µM (SARS-CoV-2 FSE (−1 PRF); [7]): 15.2% | PERCENT VIABILITY (HEK293T cells [1]): 27.8%

CCCCC(=O)O[C@H]1CC[C@H]2[C@@H]3CCc4cc(O)ccc4[C@H]3CC[C@]12C [ESTRADIOL VALERATE]
inhibition at 10 µM (SARS-CoV-2 FSE (−1 PRF); [6]): 20.9% | activation at 10 µM (SARS-CoV-2 FSE (−1 PRF); [7]): -10.8% | PERCENT VIABILITY (HEK293T cells [1]): 204.4%

CCNCC1CCN(c2c(F)cc3c(=O)c(C(=O)O)cn(CC)c3c2F)C1 (stereo not drawn) [merafloxacin, 1-ethyl-7-[3-(ethylaminomethyl)pyrrolidin-1-yl]-6,8-difluoro-4-oxoquinoline-3-carboxylic acid]
antiviral activity against an HIV-1 reporter virus (HIV-1 (NL4-3-dNef-GFP)): no antiviral activity | EC50 (SARS-CoV-2; read-out: EC50 of SARS-CoV-2 replication): 2.6 µM | EC90 (SARS-CoV-2; read-out: EC90 of SARS-CoV-2 replication): 12 µM | antiviral activity against HCoV-OC43 (HCoV-OC43): showed antiviral activity | IC50 (−1 PRF of SARS-CoV-2; Severe acute respiratory syndrome coronavirus 2, dose-dependent, FIG. 2C, read-out: IC50 of −1 PRF inhibition, SARS-CoV-2): ~20 µM | −1 PRF of in vitro-transcribed SARS-CoV-2 reporter mRNAs (−1 PRF of SARS-CoV-2; in vitro transcribed RNAs (FIG. 2O)): inhibited | validated effect on −1 PRF in dual luciferase-based PRF reporter assay (−1 PRF of SARS-CoV-2): inhibitor | IC50 (−1 PRF of HCoV-HKU1): 30 µM | cytotoxicity (Vero E6 cells): without causing substantial cytotoxicity | inhibition of −1 PRF of EAV (−1 PRF of EAV): did not inhibit | activity against −1 PRF of hCoV-229E (−1 PRF of hCoV-229E): much weaker activity | inhibition at 10 µM (SARS-CoV-2 FSE (−1 PRF); [6]): 25% | activation at 10 µM (SARS-CoV-2 FSE (−1 PRF); [7]): -13% | inhibition of −1 PRF of WNV (−1 PRF of WNV): did not inhibit | IC50 (−1 PRF of HCoV-OC43): 39 µM | inhibition of −1 PRF of human PEG10 mRNA [2]: did not inhibit | relative abundance between nsp12 and nsp8 (SARS-CoV-2 nsp12 / nsp8): substantially reduced | effect on upstream FLuc translation (HEK293T cells [3]; 20 μM merafloxacin (FIG. 2F)): did not affect | effect on ribosome association of the reporter mRNA (HEK293T cells [3]; 80 μM merafloxacin (FIG. 2H)): did not affect | effect on global translation (polysome profiles) (HEK293T cells [3]; 80 μM merafloxacin for 24 hours (FIG. 2G)): did not affect | effect on reporter mRNA abundance (HEK293T cells [3]; FIG. 2M): did not affect | sensitivity of IBV FSE [4]: largely insensitive | PERCENT VIABILITY (HEK293T cells [1]): 168.57% | effect on cell viability (HEK293T cells [5]): did not affect | activity against −1 PRF of hCoV-NL63 (−1 PRF of hCoV-NL63): much weaker activity | IC50 (−1 PRF of SARS-CoV): ~20 µM | inhibition of −1 PRF of HIV-1 (−1 PRF of HIV-1): did not inhibit

COc1cccc2c1C(=O)c1c(O)c3c(c(O)c1C2=O)C[C@@](O)(C(=O)CO)C[C@@H]3O[C@H]1C[C@H](N)[C@H](O)[C@H](C)O1.Cl [Doxorubicin Â•HCl]
PERCENT EFFECT 2 (Decreased GFP/Red ratio) (SARS-CoV-2 FSE (−1 PRF)): 109.41% | PERCENT EFFECT (Increased GFP/Red Ratio) (SARS-CoV-2 FSE (−1 PRF)): −57.80% | PERCENT VIABILITY (HEK293T cells [1]): 6.15%

C[C@@H]1O[C@@H](O[C@H]2C[C@@H](O)[C@]3(CO)[C@H]4[C@H](O)C[C@]5(C)[C@@H](C6=CC(=O)OC6)CC[C@]5(O)[C@@H]4CC[C@]3(O)C2)[C@H](O)[C@H](O)[C@H]1O [Ouabain]
inhibition at 10 µM (SARS-CoV-2 FSE (−1 PRF); [6]): -29.7% | activation at 10 µM (SARS-CoV-2 FSE (−1 PRF); [7]): 15.7% | PERCENT VIABILITY (HEK293T cells [1]): 16.4%

CCOC(=O)Nc1ccc(NCc2ccc(F)cc2)nc1N [flupirtine, ethyl N-(2-amino-6-{[(4-fluorophenyl)methyl]amino}pyridin-3-yl)carbamate]
inhibition at 10 µM (SARS-CoV-2 FSE (−1 PRF); [6]): -27.2% | activation at 10 µM (SARS-CoV-2 FSE (−1 PRF); [7]): 14.4% | PERCENT VIABILITY (HEK293T cells [1]): 110.5%

Reference: patent US20230364074A1, “Compounds and Compositions for Disrupting Programmed Ribosomal Frameshifting” (YALE UNIVERSITY, priority 2020, published 2023)
